{"source": "patent US20240293566A1", "about": "“ANTI-EGFRvIII ANTIBODY DRUG CONJUGATES AND USES THEREOF” (Regeneron Pharmaceuticals, Inc., priority 2021, published 2024)", "key": {"U251/EGFRvIII xenografts": {"system": "U251/EGFRvIII xenografts", "experiment": "Subcutaneous U251/EGFRvIII xenograft, comparison with COMP-MMAF (Example 11)", "type": "in vivo, SCID mice", "conditions": "for Tumor growth (mm^3) from start of treatment (mean ± SD) / Tumor volume (mm^3) at termination of vehicle group (mean ± SD): Day 36 post-treatment", "experimental": "For the initial xenograft study, U251/EGFRvIII tumors were established by the subcutaneous implantation of 10×10^6 cells mixed 1:1 with Matrigel on the right flank of male SCID mice. Tumors were grown to ˜175 mm^3 before treatment initiation, approximately 30 days post-implantation. Mice were randomized into groups of 8 and treated with a single dose of test or control ADCs. Tumor growth was monitored for 71 days post-treatment."}, "[1]": {"system": "Orthotopically placed GBM59 GBM PDX tumors", "experiment": "Intracranial orthotopic GBM59 PDX survival, comparison with COMP-MMAF (Example 11)", "type": "in vivo, mice", "experimental": "Intracranial injection was performed at 1 mm anterior and 2 mm lateral to the bregma at a depth of 3 mm. All orthotopic GBM PDX studies were conducted by Translational Drug Development Inc. Orthotopic GBM59 PDX were allowed to establish for 25 days before mice were randomized into groups of 8 and treated with a single dose of test or control ADCs. Mice were monitored for 94 days for signs of peri-morbidity and euthanized prior to reaching a moribund state."}, "[2]": {"system": "U251MG/hEGFRvIII in coculture", "experiment": "Bystander killing assay, 1:1 coculture, far red positive population", "type": "cell-based, human", "conditions": "6 days", "experimental": "Bystander killing by an ADC can take place when the cytotoxic payload is released from the target cells and is then taken up by surrounding antigen-negative (bystander) cells. […] Cells were subsequently treated with 3 ug/mL of Hoechst 33342 nuclear stain (ThermoFisher, #H3570) while being fixed with 4% formaldehyde (ThermoFisher, #28908). Images were acquired on the Opera Phenix Microscope (PerkinELmer). All cells were identified by the Hoechst-labeled nuclei and cell counts were separated into far red positive U251 MG/hEGFRvIII cells (U251 in coculture) and far red negative parental U251 MG cell populations via Harmony image analysis software (PerkinELmer). Cell viability was determined separately for each cell population and expressed as a percentage of the untreated (100% viable) cells."}, "U251 MG parental cells": {"system": "U251 MG parental cells", "experiment": "In vitro cytotoxicity (nuclear counts after 6-day treatment), mono-culture", "type": "cell-based", "excerpt": "(§1) To determine the relative cell-killing potency of anti-EGFRvIII antibody drug conjugates of the invention, cell-killing assays were run on a cell line expressing human EGFRvIII. To develop the cell line, Lipofectamine LTX with Plus Reagent was used to generate U251 cells (Sigma, #9063001) expressing human EGFRvIII (hEGFRvIII; amino acids 1 through 380 of accession number NP_005219.2 with a deletion of amino acids 30 through 297 and creation of a junctional glycine residue, i.e. SEQ ID NO: 25) here in referred to as U251 MG/hEGFRvIII. The U251 lines were maintained in complete growth media (MEM Earle's Salts+10% FBS+1% L-glutamine/penicillin/streptomycin+1% non-essential amino acids+sodium pyruvate).\n(§2) To measure the in vitro cytotoxicity of anti-EGFRvIII antibody drug conjugates, nuclear counts after a 6-day treatment with the antibody drug conjugates were assessed. […] Nuclear counts were determined via Harmony image analysis software (PerkinELmer), and cell viability was expressed as a percentage of the untreated (100% viable) cells. IC50 values were determined using a four-parameter logistic equation over a 10-point dose response curve (GraphPad Prism). The maximum % kill was also determined for each test article as follows: 100-minimum percent viability."}, "U251MG in coculture": {"system": "U251MG in coculture", "experiment": "Bystander killing assay, 1:1 coculture, far red negative population", "type": "cell-based", "conditions": "6 days", "experimental": "Bystander killing by an ADC can take place when the cytotoxic payload is released from the target cells and is then taken up by surrounding antigen-negative (bystander) cells. […] A 1:1 coculture of 1500 cells/well of far red labeled U251 MG/hEGFRvIII cells and 1500 cells/well unlabeled U251 MG cells were incubated with either ADC or free payload M31 at a range of concentrations (100 nM to 1.5 pM) for 6 days. Cells were subsequently treated with 3 ug/mL of Hoechst 33342 nuclear stain (ThermoFisher, #H3570) while being fixed with 4% formaldehyde (ThermoFisher, #28908). Images were acquired on the Opera Phenix Microscope (PerkinELmer). All cells were identified by the Hoechst-labeled nuclei and cell counts were separated into far red positive U251 MG/hEGFRvIII cells (U251 in coculture) and far red negative parental U251 MG cell populations via Harmony image analysis software (PerkinELmer). Cell viability was determined separately for each cell population and expressed as a percentage of the untreated (100% viable) cells."}, "U251 MG/hEGFRvIII cells": {"system": "U251 MG/hEGFRvIII cells", "experiment": "In vitro cytotoxicity (nuclear counts after 6-day treatment), mono-culture", "type": "cell-based, human", "excerpt": "as §1, §2"}}}
{"molecule": "COMP-MMAF: ABT-414 (hu806) antibody conjugated to monomethyl auristatin F (MMAF) via non-cleavable linker", "values": [{"measurement": "Anti-tumor activity", "setting": "U251/EGFRvIII xenografts; COMP-MMAF 2.5 mg/kg", "value": "Activity against tumors was seen"}, {"measurement": "Anti-tumor activity", "setting": "U251/EGFRvIII xenografts; COMP-MMAF 5 mg/kg, 71 days post-dosing", "value": "sustained activity similar to that resulting from treatment with REGN3124-tesirine"}, {"measurement": "Tumor growth (mm^3) from start of treatment (mean ± SD)", "setting": "U251/EGFRvIII xenografts; ADC dose 1 mg/kg", "value": "423 ± 324", "unit": "mm^3"}, {"measurement": "Tumor volume (mm^3) at termination of vehicle group (mean ± SD)", "setting": "U251/EGFRvIII xenografts; ADC dose 1 mg/kg", "value": "595 ± 325", "unit": "mm^3"}, {"measurement": "Tumor growth (mm^3) from start of treatment (mean ± SD)", "setting": "U251/EGFRvIII xenografts; ADC dose 2.5 mg/kg", "value": "6 ± 36", "unit": "mm^3"}, {"measurement": "Tumor volume (mm^3) at termination of vehicle group (mean ± SD)", "setting": "U251/EGFRvIII xenografts; ADC dose 2.5 mg/kg", "value": "183 ± 51", "unit": "mm^3"}, {"measurement": "Tumor growth (mm^3) from start of treatment (mean ± SD)", "setting": "U251/EGFRvIII xenografts; ADC dose 5 mg/kg", "value": "−36 ± 22", "unit": "mm^3"}, {"measurement": "Tumor volume (mm^3) at termination of vehicle group (mean ± SD)", "setting": "U251/EGFRvIII xenografts; ADC dose 5 mg/kg", "value": "136 ± 16", "unit": "mm^3"}, {"measurement": "Anti-tumor activity", "setting": "U251/EGFRvIII xenografts; REGN3124-tesirine 0.53 mg/kg ADC (7 ug/kg PBD payload), COMP-MMAF 1 mg/kg, isotype controls all dose levels", "value": "Sustained regression was not observed"}, {"measurement": "N = 8 survival at Day 94", "setting": "[1]; ADC dose 1 (mg/kg)", "value": "0/8"}, {"measurement": "median survival", "setting": "[1]; ADC dose 1 (mg/kg)", "value": 13.5, "unit": "days"}, {"measurement": "N = 8 survival at Day 94", "setting": "[1]; ADC dose 5 (mg/kg), MMAF ADCs", "value": "0/8"}, {"measurement": "median survival", "setting": "[1]; ADC dose 5 (mg/kg), MMAF ADCs", "value": 23.5, "unit": "days"}, {"measurement": "Effect on survival relative to the MMAF control", "setting": "[1]; COMP-MMAF 5 mg/kg", "value": "some increase in survival"}, {"measurement": "Time within which all mice succumbed to tumor burden", "setting": "[1]; COMP-MMAF 5 mg/kg", "value": "≤ 35 days of treatment"}, {"measurement": "Effect on survival", "setting": "[1]; REGN3124-tesirine DAR 1.9, 7 ug/kg payload, COMP-MMAF 1 mg/kg, controls", "value": "did not induce a significant increase in survival"}]}
{"molecule": "COc1cc2c(cc1OCCCCCOc1cc3c(cc1OC)C(=O)N1C=C(C)C[C@H]1C=N3)N=C[C@@H]1CC(C)=CN1C2=O", "note": "[SG3199]", "values": [{"measurement": "% Kill (maximum)", "setting": "[2]", "value": 91, "unit": "%"}, {"measurement": "IC50", "setting": "[2]; Homo sapiens, U-251, 144 h", "value": 10, "unit": "pM"}, {"measurement": "IC50", "setting": "U251 MG parental cells; Homo sapiens, U-251, 144 h", "value": 2, "unit": "pM"}, {"measurement": "% Kill (maximum)", "setting": "U251 MG parental cells; U251MG mono-culture, 6 days", "value": 93, "unit": "%"}, {"measurement": "% Kill (maximum)", "setting": "U251MG in coculture", "value": 94, "unit": "%"}, {"measurement": "IC50", "setting": "U251MG in coculture; Homo sapiens, U-251, 144 h", "value": 7, "unit": "pM"}, {"measurement": "IC50", "setting": "U251 MG/hEGFRvIII cells; Homo sapiens, U-251, 144 h", "value": 10, "unit": "pM"}, {"measurement": "% Kill (maximum)", "setting": "U251 MG/hEGFRvIII cells; U251MG/hEGFRvIII mono-culture, 6 days", "value": 92, "unit": "%"}]}
